Experimental data taken from patent US20200129495A1 (BioPharmX, Inc., priority 2018, published 2020).
Read-outs that look alike come from different tables or passages of the source.

What was measured:
[1] = Stability of ebastine in ethanol composition at 40° C.; type: physicochemical; conditions: over the tested period (2 months)
[2] = Method: The pH of each suspension was determined using a pH meter (Orion Star A111, Thermo Scientific, Waltham, Mass.). Following, the pH of each suspension was adjusted with acid 1N HCl to the target pH. A 2 milliliter (mL) sample of the liquid portion of the mixture (supernatant) was removed from the top of each vial and spun in a micro-centrifuge (Eppendorf Minispin, Hamburg Germany) at 12,000 rpm for 2 minutes.
A 10 microliter (μL) sample was injected into a high-performance liquid chromatography machine (HPLC) (Agilent, Santa Clara, Calif.). […] The HPLC system also used a guard column (Phenomenex, Inc.) and a mobile phase consisting of a base solvent of 70 percent (v/v) methanol (Spectrum Chemicals, Gardena, Calif.), and 30 percent (v/v) 40 mM potassium phosphate buffer, pH 4.0 (Spectrum Chemicals, Gardena, Calif.). The HPLC flow rate was 1 mL per minute with a column temperature of 40 degrees centigrade, a detection wavelength of 262 nanometers (nm), and a runtime of at least 15 minutes.

[3] = remark: listed apart in the source
Text: Addition of the solvent was repeated until the test material was completely dissolved, resulting in a visually clear solution.

male C57BL/6J mice [4] = conditions: 2% (w/w) ebastine in ethanol/propylene glycol, topical 2.5 mg/cm^2 daily
Method: Penetration into the skin was assessed in a sample size of three male mice.
The skin surface of the shaved patch was wiped clean with phosphate buffer saline (1×PBS). Mice were left to acclimate overnight.
For five weeks, the test composition was applied daily at a dose of 2.5 mg/cm^2 using a positive displacement pipette and carefully spread in the 12 cm^2 test area using a clean metal spatula.
At the end of the 5-week study period, 10 hairs from each site were plucked from the upper-middle, middle, and lower-middle patch area of each of the mice. In addition, 10 hairs were plucked from outside the patch area for each of the mice in the nontreatment group. The length of each of the plucked hairs was measured with a microcaliper and the resulting values were averaged.
In the study (as described supra), mice were shaved while in the telogen phase. Shaving stimulated hair growth by inducing the transition from rest (telogen phase) to growth (anagen phase). The shaved patch area for each mouse was observed daily for anagen onset, i.e., the first day of the anagen phase of the hair cycle.

male C57BL/6J mice [5] = conditions: topical 2.5 mg/cm^2 daily, 5 weeks; monitored throughout the study
Method: The modified Draize test is an acute erythema test carried out as follows. A C57BL/6J mouse is shaved in an application area, and the application area allowed to rest for approximately 24 hours and then rinsed with non-irritating soap. A test composition is applied evenly, without significant rubbing, to a 12 cm^2 area of the mouse's skin in a volume of 2.5 mg/cm^2. The sample is allowed to sit uncovered for 24 hours. After 24 hours, the application area is washed gently with lx phosphate buffered saline (1×PBS) and non-irritating soap to facilitate observation of the application area. The application area is then scored according to the following scale: 0=no evidence of erythema; 1=minimal erythema, barely perceptible; 2=definite erythema, readily visible, minimal edema or minimal popular response; 3=erythema and papules; 4=definite edema; 5=erythema, edema, and papules; 6=vesicular eruption; 7=strong reaction spreading beyond test site.
The skin surface of the shaved patch was wiped clean with phosphate buffer saline (1×PBS). Mice were left to acclimate overnight. […]
Clinical signs such as behavior were monitored throughout the study. […] The patch area was assessed for signs of erythema using the modified Draize scoring system and dryness every other day throughout the study period.

Compound: CC(C)(C)c1ccc(C(=O)CCCN2CCC(OC(c3ccccc3)c3ccccc3)CC2)cc1 [Ebastine, 1-[4-(1,1-dimethylethyl)phenyl]-4-[4-(diphenylmethoxy)-1-piperidinyl]-1-butanone]
- stability of ebastine in ethanol [1]: stable
- solubility class in 9:1 ethanol:water ([2]; pH range of from 2 to 6): soluble (solubility of 33.3 mg/g or greater)
- solubility class in 9:1 ethanol:water ([2]; pH values above 6, such as 7 to 10): at least sparingly soluble (solubility of 10.0 mg/g or greater)
- Ebastine Solubility in 90:10 Ethanol:Water ([2]; pH 2.3, room temperature): 30.38 (mg/g)
- Ebastine Solubility in 90:10 Ethanol:Water ([2]; pH 6.16, room temperature): 33.35 (mg/g)
- Ebastine Solubility in 90:10 Ethanol:Water ([2]; pH 7.76, room temperature): 16.58 (mg/g)
- Ebastine Solubility in 90:10 Ethanol:Water ([2]; pH 9.90, room temperature): 15.3 (mg/g)
- solubility in ethanol and water mixture compared with ethanol alone or water alone ([2]; pH less than about 7, such as 2.3 to 6.2): exceeded
- solubility of ebastine in water alone ([2]; water alone, useful pH ranges): less than 2 mg/g
- Ebastine Solubility in water ([2]; pH 3.04, room temperature): 1.4 (mg/g)
- Ebastine Solubility in water ([2]; pH 5.06, room temperature): 0 (mg/g)
- Ebastine Solubility in water ([2]; pH 6.91, room temperature): 0 (mg/g)
- solubility class in water ([2]; pH below 5.0, such as 3.0 to 5.0): slightly soluble (solubility of 1.0 to 10.0 mg/g)
- solubility class in water ([2]; pH in the range of 5 to 7, room temperature): insoluble (solubility of less than 1.0 mg/g)
- solubility class in water ([2]; pH values of 5 and above): insoluble (solubility of less than 1.0 mg/g)
- EBASTINE SOLUBILITY AT ROOM TEMP ([3]; Benzyl Benzoate): >45.0 mg/g
- EBASTINE SOLUBILITY AT ROOM TEMP ([3]; Diethyl Sebacate): 120.6 mg/g
- EBASTINE SOLUBILITY AT ROOM TEMP ([3]; Diethylene Glycol Monoethyl Ether): 33.9 mg/g
- EBASTINE SOLUBILITY AT ROOM TEMP ([3]; Dimethyl Succinate): 0.47 mg/g
- EBASTINE SOLUBILITY AT ROOM TEMP ([3]; Ethyl Acetate): 245.2 mg/g
- EBASTINE SOLUBILITY AT ROOM TEMP ([3]; Methylpyrrolidone): >23.1 mg/g
- EBASTINE SOLUBILITY AT ROOM TEMP ([3]; Triacetin): <1.1 mg/g
- amount of ebastine soluble in 1 gram of diethyl sebacate ([3]; in 1 gram of diethyl sebacate): approximately 120.6 mg
- time to significant anagen induction (average) (male C57BL/6J mice [4]; mice shaved in telogen phase): 10 days
- total average patch coverage with hair (male C57BL/6J mice [4]; study end, after 5 weeks): 90 % of the total patch area
- clinical signs: behavior (male C57BL/6J mice [5]): No abnormal behavior
